From ChEMBL document CHEMBL1201862, “PubChem BioAssay data set” (2004)
Activity calls are given as the source filed them. Cut-off read from the data, not from the text of the source, for most assays here: actives have a measured IC50 and inactives only a lower limit.

Tests used:
Type in all cases: functional
[1] = target: T1, Replicative DNA helicase DnaB (Mycobacterium tuberculosis, UniProt P9WMR3); test: DnaB intein splicing inhibitors, dose response, biochemical, cell-free fluorescence (AID 449749)
T1 sequence (P9WMR3 whole entry): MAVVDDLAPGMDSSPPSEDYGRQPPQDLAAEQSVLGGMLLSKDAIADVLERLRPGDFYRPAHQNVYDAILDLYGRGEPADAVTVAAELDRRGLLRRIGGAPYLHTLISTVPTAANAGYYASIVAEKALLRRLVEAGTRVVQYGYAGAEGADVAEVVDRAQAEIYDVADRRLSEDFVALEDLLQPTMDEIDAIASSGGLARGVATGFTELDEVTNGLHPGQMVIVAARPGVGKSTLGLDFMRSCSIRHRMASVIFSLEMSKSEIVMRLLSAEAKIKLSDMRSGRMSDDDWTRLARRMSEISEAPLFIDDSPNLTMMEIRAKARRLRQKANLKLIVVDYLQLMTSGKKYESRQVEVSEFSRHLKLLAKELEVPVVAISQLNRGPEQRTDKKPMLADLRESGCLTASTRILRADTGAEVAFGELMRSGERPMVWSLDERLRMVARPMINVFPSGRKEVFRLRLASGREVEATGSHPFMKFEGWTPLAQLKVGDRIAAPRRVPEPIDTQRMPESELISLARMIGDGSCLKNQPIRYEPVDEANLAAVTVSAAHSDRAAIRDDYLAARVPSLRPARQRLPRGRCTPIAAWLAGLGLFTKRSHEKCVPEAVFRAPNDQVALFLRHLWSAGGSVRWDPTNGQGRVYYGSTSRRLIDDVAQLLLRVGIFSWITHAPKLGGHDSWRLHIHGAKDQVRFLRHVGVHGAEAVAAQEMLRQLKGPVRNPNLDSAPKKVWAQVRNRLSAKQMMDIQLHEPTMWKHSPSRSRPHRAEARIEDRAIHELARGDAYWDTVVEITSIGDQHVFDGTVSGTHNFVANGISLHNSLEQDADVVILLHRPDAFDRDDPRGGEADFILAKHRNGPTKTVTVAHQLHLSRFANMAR

[2] = target: T2, Sentrin-specific protease 7 (Homo sapiens, UniProt Q9BQF6);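 note: Luminescence-based dose-response confirmation of ultra-high-throughput screening hits, measuring inhibition of SENP7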
T2 sequence (Q9BQF6 whole entry): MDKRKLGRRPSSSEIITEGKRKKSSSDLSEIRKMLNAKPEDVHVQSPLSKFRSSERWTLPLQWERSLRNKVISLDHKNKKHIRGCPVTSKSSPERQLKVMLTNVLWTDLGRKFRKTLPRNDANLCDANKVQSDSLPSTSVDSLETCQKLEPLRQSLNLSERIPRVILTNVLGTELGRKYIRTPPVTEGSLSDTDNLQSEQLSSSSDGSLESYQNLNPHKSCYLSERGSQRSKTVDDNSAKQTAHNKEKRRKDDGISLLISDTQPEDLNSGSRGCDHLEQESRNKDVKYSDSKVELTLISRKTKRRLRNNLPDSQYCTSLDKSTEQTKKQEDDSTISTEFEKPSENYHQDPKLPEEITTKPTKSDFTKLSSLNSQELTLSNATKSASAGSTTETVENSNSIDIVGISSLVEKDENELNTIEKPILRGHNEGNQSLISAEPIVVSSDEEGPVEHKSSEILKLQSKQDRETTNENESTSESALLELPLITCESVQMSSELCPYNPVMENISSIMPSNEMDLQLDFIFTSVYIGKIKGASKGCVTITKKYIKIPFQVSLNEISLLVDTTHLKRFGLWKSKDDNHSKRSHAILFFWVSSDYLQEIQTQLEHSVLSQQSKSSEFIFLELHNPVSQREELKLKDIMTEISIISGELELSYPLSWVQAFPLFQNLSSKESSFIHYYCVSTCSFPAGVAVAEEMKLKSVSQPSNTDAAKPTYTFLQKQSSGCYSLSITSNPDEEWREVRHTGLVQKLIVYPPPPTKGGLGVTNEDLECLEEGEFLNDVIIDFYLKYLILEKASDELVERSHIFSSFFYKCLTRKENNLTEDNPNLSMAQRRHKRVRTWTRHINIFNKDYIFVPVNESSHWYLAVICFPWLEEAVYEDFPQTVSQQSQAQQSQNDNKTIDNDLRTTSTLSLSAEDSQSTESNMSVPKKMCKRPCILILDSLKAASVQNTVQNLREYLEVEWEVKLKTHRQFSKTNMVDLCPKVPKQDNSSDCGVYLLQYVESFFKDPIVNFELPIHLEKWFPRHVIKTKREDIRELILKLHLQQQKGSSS

[3] = target: T3, Sentrin-specific protease 8 (Homo sapiens, UniProt Q96LD8);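 note: luminescence read-out of SENP8 inhibition, dose-response confirmation following an ultra-high-throughput screen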
T3 sequence (Q96LD8 whole entry): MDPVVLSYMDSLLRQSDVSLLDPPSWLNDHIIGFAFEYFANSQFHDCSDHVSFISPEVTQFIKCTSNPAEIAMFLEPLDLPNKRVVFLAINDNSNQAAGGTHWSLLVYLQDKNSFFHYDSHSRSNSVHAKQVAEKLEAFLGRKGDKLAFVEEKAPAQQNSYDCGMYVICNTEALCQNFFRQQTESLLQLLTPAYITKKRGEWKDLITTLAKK

[4] = target: T3, Sentrin-specific protease 8; test: SENP8 protease inhibitors, SAR follow-up, biochemical, luminescence (AID 504501)

With `O=C(NN=c1c(=O)c2ccccc2c1=O)c1ccccc1` as the compound, how does the AC50 [1] read?
The AC50 was 3.42 µM (active).

What about the IC50 [2] of the same compound?
The IC50 was 10.7 µM (active).

What about the IC50 [3] of the same compound?
Its IC50 is > 100 µM (inactive).

What about the IC50 [4] of the same compound?
Its IC50 is 19.8 µM (active).
